Assays:
Assay in all cases: relative viability (nuclei count vs DMSO), 5 days (fraction); higher = more cells survive
CAL-12T = system: CAL-12T
Outline: (§1)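 Lung cancer cell lines in 1536-well plates got either a single drug or a fixed anchor-drug dose together with five library-drug doses (not always all listed) in √10 steps, by pin tool, on the day after seeding. Nuclei were counted after 5 days, and relative viability is the treated-to-vehicle ratio of nuclei counts. Values are medians of duplicate plates.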

COR-L 105 = system: COR-L 105
Outline: as §1

EMC-BAC-2 = system: EMC-BAC-2
Outline: as §1

H3255 = system: H3255
Outline: as §1

LC-2-ad = system: LC-2-ad
Outline: as §1

LK-2 = system: LK-2
Outline: as §1

NCI-H1395 = system: NCI-H1395
Outline: as §1

NCI-H1437 = system: NCI-H1437
Outline: as §1

NCI-H1651 = system: NCI-H1651
Outline: as §1

NCI-H1755 = system: NCI-H1755
Outline: as §1

NCI-H1793 = system: NCI-H1793
Outline: as §1

NCI-H1915 = system: NCI-H1915
Outline: as §1

NCI-H1944 = system: NCI-H1944
Outline: as §1

NCI-H2085 = system: NCI-H2085
Outline: as §1

NCI-H2087 = system: NCI-H2087
Outline: as §1

NCI-H2228 = system: NCI-H2228
Outline: as §1

NCI-H2342 = system: NCI-H2342
Outline: as §1

NCI-H2347 = system: NCI-H2347
Outline: as §1

NCI-H522 = system: NCI-H522
Outline: as §1

NCI-H661 = system: NCI-H661
Outline: as §1

PC-3 [JPC-3] = system: PC-3 [JPC-3]
Outline: as §1

SK-LU-1 = system: SK-LU-1
Outline: as §1

Work on `COCC1(CO)C(=O)C2CCN1CC2` (stereo unspecified) [PRIMA-1MET] + N=C(N)NC(=N)NCCc1ccccc1 [Phenformin] (partner 250 µM) yielded a relative viability (CAL-12T; first compound 0.2 µM) of 0.52, a relative viability (CAL-12T; first compound 0.6325 µM) of 0.592 and a relative viability (CAL-12T; first compound 2 µM) of 0.586. The relative viability (CAL-12T; first compound 6.325 µM) was 0.519, the relative viability (CAL-12T; first compound 20 µM) was 0.0696 and the relative viability (COR-L 105; first compound 0.2 µM) was 0.547. For the same compound, the relative viability (COR-L 105; first compound 0.6325 µM) was 0.438, the relative viability (COR-L 105; first compound 2 µM) was 0.373 and the relative viability (COR-L 105; first compound 6.325 µM) was 0.459. For the same compound, the relative viability (COR-L 105; first compound 20 µM) was 0.124, the relative viability (EMC-BAC-2; first compound 0.2 µM) was 0.642 and the relative viability (EMC-BAC-2; first compound 0.6325 µM) was 0.564. It also gave a relative viability (EMC-BAC-2; first compound 6.325 µM) of 0.609, a relative viability (EMC-BAC-2; first compound 20 µM) of 0.352 and a relative viability (H3255; first compound 0.2 µM) of 0.458. It also gave a relative viability (H3255; first compound 0.6325 µM) of 0.335, a relative viability (H3255; first compound 2 µM) of 0.36 and a relative viability (H3255; first compound 6.325 µM) of 0.374. For the same compound, the relative viability (H3255; first compound 20 µM) was 0.293, the relative viability (LC-2-ad; first compound 0.2 µM) was 0.548 and the relative viability (LC-2-ad; first compound 2 µM) was 0.49. For the same compound, the relative viability (LC-2-ad; first compound 6.325 µM) was 0.568, the relative viability (LC-2-ad; first compound 20 µM) was 0.36 and the relative viability (LK-2; first compound 0.2 µM) was 0.45. For the same compound, the relative viability (LK-2; first compound 0.6325 µM) was 0.41, the relative viability (LK-2; first compound 2 µM) was 0.228 and the relative viability (LK-2; first compound 6.325 µM) was 0.14. For the same compound, the relative viability (LK-2; first compound 20 µM) was 0.124, the relative viability (NCI-H1395; first compound 0.2 µM) was 0.469 and the relative viability (NCI-H1395; first compound 0.6325 µM) was 0.414. It also gave a relative viability (NCI-H1395; first compound 2 µM) of 0.416, a relative viability (NCI-H1395; first compound 6.325 µM) of 0.441 and a relative viability (NCI-H1395; first compound 20 µM) of 0.395. The relative viability (NCI-H1437; first compound 0.2 µM) was 0.322, the relative viability (NCI-H1437; first compound 0.6325 µM) was 0.331 and the relative viability (NCI-H1437; first compound 2 µM) was 0.259. The relative viability (NCI-H1437; first compound 6.325 µM) was 0.298, the relative viability (NCI-H1437; first compound 20 µM) was 0.294 and the relative viability (NCI-H1651; first compound 0.2 µM) was 0.297. It also gave a relative viability (NCI-H1651; first compound 0.6325 µM) of 0.244, a relative viability (NCI-H1651; first compound 2 µM) of 0.293 and a relative viability (NCI-H1651; first compound 6.325 µM) of 0.377. The relative viability (NCI-H1651; first compound 20 µM) was 0.339, the relative viability (NCI-H1755; first compound 0.2 µM) was 0.613 and the relative viability (NCI-H1755; first compound 0.6325 µM) was 0.659. For the same compound, the relative viability (NCI-H1755; first compound 2 µM) was 0.406, the relative viability (NCI-H1755; first compound 6.325 µM) was 0.635 and the relative viability (NCI-H1755; first compound 20 µM) was 0.574. It also gave a relative viability (NCI-H1793; first compound 0.2 µM) of 0.465, a relative viability (NCI-H1793; first compound 0.6325 µM) of 0.32 and a relative viability (NCI-H1793; first compound 6.325 µM) of 0.444. It also gave a relative viability (NCI-H1793; first compound 20 µM) of 0.326, a relative viability (NCI-H1915; first compound 0.2 µM) of 0.44 and a relative viability (NCI-H1915; first compound 0.6325 µM) of 0.345. It also gave a relative viability (NCI-H1915; first compound 6.325 µM) of 0.399, a relative viability (NCI-H1915; first compound 20 µM) of 0.353 and a relative viability (NCI-H1944; first compound 0.2 µM) of 0.215. The relative viability (NCI-H1944; first compound 0.6325 µM) was 0.189, the relative viability (NCI-H1944; first compound 2 µM) was 0.155 and the relative viability (NCI-H1944; first compound 6.325 µM) was 0.201. It also gave a relative viability (NCI-H1944; first compound 20 µM) of 0.214, a relative viability (NCI-H2085; first compound 0.2 µM) of 0.727 and a relative viability (NCI-H2085; first compound 0.6325 µM) of 0.62. For the same compound, the relative viability (NCI-H2085; first compound 2 µM) was 0.432, the relative viability (NCI-H2085; first compound 6.325 µM) was 0.449 and the relative viability (NCI-H2085; first compound 20 µM) was 0.272. For the same compound, the relative viability (NCI-H2087; first compound 0.2 µM) was 0.315, the relative viability (NCI-H2087; first compound 0.6325 µM) was 0.332 and the relative viability (NCI-H2087; first compound 2 µM) was 0.494. It also gave a relative viability (NCI-H2087; first compound 6.325 µM) of 0.463, a relative viability (NCI-H2087; first compound 20 µM) of 0.168 and a relative viability (NCI-H2228; first compound 0.2 µM) of 0.41. For the same compound, the relative viability (NCI-H2228; first compound 0.6325 µM) was 0.278, the relative viability (NCI-H2228; first compound 2 µM) was 0.336 and the relative viability (NCI-H2228; first compound 6.325 µM) was 0.213. The relative viability (NCI-H2228; first compound 20 µM) was 0.0266, the relative viability (NCI-H2342; first compound 0.2 µM) was 0.58 and the relative viability (NCI-H2342; first compound 0.6325 µM) was 0.667. It also gave a relative viability (NCI-H2342; first compound 2 µM) of 0.462, a relative viability (NCI-H2342; first compound 6.325 µM) of 0.608 and a relative viability (NCI-H2342; first compound 20 µM) of 0.543. For the same compound, the relative viability (NCI-H2347; first compound 0.2 µM) was 0.265, the relative viability (NCI-H2347; first compound 0.6325 µM) was 0.366 and the relative viability (NCI-H2347; first compound 2 µM) was 0.231. The relative viability (NCI-H2347; first compound 6.325 µM) was 0.28, the relative viability (NCI-H2347; first compound 20 µM) was 0.387 and the relative viability (NCI-H522; first compound 0.2 µM) was 0.626. For the same compound, the relative viability (NCI-H522; first compound 0.6325 µM) was 0.459, the relative viability (NCI-H522; first compound 2 µM) was 0.534 and the relative viability (NCI-H522; first compound 6.325 µM) was 0.619. For the same compound, the relative viability (NCI-H522; first compound 20 µM) was 0.142, the relative viability (NCI-H661; first compound 0.2 µM) was 0.304 and the relative viability (NCI-H661; first compound 0.6325 µM) was 0.261. The relative viability (NCI-H661; first compound 2 µM) was 0.274, the relative viability (NCI-H661; first compound 6.325 µM) was 0.288 and the relative viability (NCI-H661; first compound 20 µM) was 0.292. The relative viability (PC-3 [JPC-3]; first compound 0.2 µM) was 0.464, the relative viability (PC-3 [JPC-3]; first compound 0.6325 µM) was 0.456 and the relative viability (PC-3 [JPC-3]; first compound 2 µM) was 0.462. The relative viability (PC-3 [JPC-3]; first compound 6.325 µM) was 0.477, the relative viability (PC-3 [JPC-3]; first compound 20 µM) was 0.466 and the relative viability (SK-LU-1; first compound 0.2 µM) was 0.545. For the same compound, the relative viability (SK-LU-1; first compound 0.6325 µM) was 0.559, the relative viability (SK-LU-1; first compound 2 µM) was 0.326 and the relative viability (SK-LU-1; first compound 6.325 µM) was 0.606. It also gave a relative viability (SK-LU-1; first compound 20 µM) of 0.0941.
